Data from patent US10308916B2, “Omega-transaminase mutants with activity improvements toward ketones and methods for producing optically pure amines” (Industry-Academic Cooperation Foundation, Yonsei University, priority 2015, dated 2019).
Like-named read-outs stand apart in the source and are kept apart here.

Columns and labels:
Assay type in all cases: biochemical
[1] = test system: OATA W58L
[2] = test system: OATA L57A
[3] = test system: OATA L57A/W58A
[4] = test system: OATA L57A/W58A/V154A
[5] = test system: OATA W58A; conditions: pH 7
[6] = test system: OATA W58V; conditions: pH 7
[7] = test system: OATA W58I; conditions: pH 7
[8] = test system: OATA W58L; conditions: pH 7
[9] = test system: OATA W58M; conditions: pH 7
[10] = test system: OATA L57C/W58L/I261A
[11] = test system: OATA W58A
[12] = test system: OATA W58L; remark: listed apart in the source
[13] = test system: OATA W58L; remark: listed apart in the source
[14] = test system: OATA L57A/W58A; remark: listed apart in the source
[15] = test system: OATA L57A/W58A/V154A; remark: listed apart in the source
[16] = test system: OATA L57A; remark: listed apart in the source

Molecule | Relative activity to acetophenone, OATA W58A [5] | Relative activity to acetophenone, OATA W58V [6] | Relative activity to acetophenone, OATA W58I [7] | Relative activity to acetophenone, OATA W58L [8] | Relative activity to acetophenone, OATA W58M [9] | other results
CC(=O)C(=O)O [pyruvate, pyruvic acid] | – | – | – | – | – | Fold-increase in kcat/KM [1]: 0.41; decrease in specificity constant (kcat/KM) [1]: 60%; fold increase in turnover number (kcat) [1]: 7.1; weaker binding, fold decrease in KM as printed [1]: 17.5; Relative activity, OATA L57A [2]: 77%; Relative activity, OATA L57A/W58A [3]: 707%; Relative activity, OATA L57A/W58A/V154A [4]: 1,190%
O=C1CCCc2ccccc21 [Ketone 1h, α-tetralone] | 19% | 12% | 16% | 0.7% | 17% | Relative activity, OATA L57C/W58L/I261A [10]: 243%
CC(N)CCc1ccccc1 (stereo not shown) [1-Methyl-3-phenylpropylamine] | – | – | – | – | – | Relative reactivity, OATA W58A [11]: 151%; Relative reactivity, OATA W58L [12]: 202%
CCCCCC[C@H](C)N [(S)-2-aminooctane] | – | – | – | – | – | Relative reactivity, OATA W58A [11]: 99%; Relative reactivity, OATA W58L [12]: 255%
CCCC(C)=O [Ketone 1j, 2-pentanone] | 15% | 28% | 21% | 141% | 25% | –
COCC(C)N (stereo not shown) [1-Methoxy-2-propylamine] | – | – | – | – | – | Relative reactivity, OATA W58A [11]: 126%; Relative reactivity, OATA W58L [12]: 119%
CCCCCCC(C)=O [Ketone 1l, 2-octanone] | 122% | 140% | 73% | 209% | 81% | Relative activity, OATA L57C/W58L/I261A [10]: 13,757%; Conversion (%) OATAW58L [13]: 91%
CC(=O)C(C)C [Ketone 1m, 3-methyl 2-butanone] | 21% | 29% | 26% | 78% | 29% | –
cyclpropyl methyl ketone [Ketone 1o] | 14% | 14% | 17% | 4% | 19% | –
1-acetonaphthone [Ketone 1i] | – | – | – | 47% | – | Conversion (%) OATAW58L [13]: 75%
CC(=O)CC(C)C [Ketone 1n, 4-methyl-2-pentanone] | 46% | 35% | 41% | 61% | 38% | –
CC[C@H](N)c1ccccc1 [(S)-α-ethylbenzylamine] | – | – | – | – | – | Relative reactivity, OATA W58A [11]: 44%; Relative reactivity, OATA W58L [12]: 20%; Relative activity, OATA L57A/W58A [14]: 202%; Relative activity, OATA L57A/W58A/V154A [15]: 707%
CCCCC(=O)C(=O)O [2-oxohexanoic acid] | – | – | – | – | – | Relative activity, OATA L57A [2]: 15%; Relative activity, OATA L57A/W58A [3]: 49%; Relative activity, OATA L57A/W58A/V154A [4]: 114%
O=C(CO)c1ccccc1 [2-hydroxyacetophenone] | 61% | 70% | 73% | – | 65% | –
COc1ccc(C(C)=O)cc1 [Ketone 1e, 4-methoxyacetophenone] | 30% | 30% | 38% | 34% | 42% | Relative activity, OATA L57C/W58L/I261A [10]: 4,017%
CCC(C)=O [Ketone 2-butanone, 2-butanone] | 16% | 17% | 20% | 78% | 25% | –
O=C1CCc2ccccc21 [Ketone 1g, 1-indanone] | 15% | 17% | 16% | 2% | 20% | Relative activity, OATA L57A [16]: 0.6%; Relative activity, OATA L57C/W58L/I261A [10]: 609%
C[C@H](N)c1cccc2ccccc12 [(S)-1-(1-naphthyl)ethylamine] | – | – | – | – | – | Relative reactivity, OATA W58A [11]: 0.7%; Relative reactivity, OATA W58L [12]: 2%; Relative activity, OATA L57A/W58A [14]: 18%; Relative activity, OATA L57A/W58A/V154A [15]: 60%
COCC(C)=O [methoxyacetone] | 135% | 152% | 166% | 424% | 159% | –
CCCC(=O)C(=O)O [2-oxopentanoic acid] | – | – | – | – | – | Relative activity, OATA L57A [2]: 40%; Relative activity, OATA L57A/W58A [3]: 103%; Relative activity, OATA L57A/W58A/V154A [4]: 206%
CCCC(C)N (stereo not shown) [2-Aminopentane] | – | – | – | – | – | Relative reactivity, OATA W58A [11]: 194%; Relative reactivity, OATA W58L [12]: 272%
